From patent US11098060B2, “Macrocycle containing aminopyrazole and pyrimidine and pharmaceutical composition and use thereof” (CHIA TAI TIANQING PHARMACEUTICAL GROUP CO., LTD., priority 2017, dated 2021)

How the values were obtained:
TrkA^WT kinase = TrkA^WT kinase (Homo sapiens (Human), UniProt P04629); assay: Assay for inhibitory activity (IC50) against TrkA^WT (HTRF); type: biochemical; conditions: TrkA 1 nM, ATP 40 μM, TK peptide 1 μM, 60 min at 23° C.
[1] = biological target: TrkA^G595R (Kinase domain) kinase (Homo sapiens (Human), UniProt P04629, G595R); assay: Assay for inhibitory activity (IC50) against TrkA^G595R kinase (HTRF); type: biochemical; conditions: kinase 0.2 nM, TK peptide 1 μM, 120 min at 23° C.
TrkA^G595R (Kinase domain) kinase, sequence (P04629 510-781 G595R): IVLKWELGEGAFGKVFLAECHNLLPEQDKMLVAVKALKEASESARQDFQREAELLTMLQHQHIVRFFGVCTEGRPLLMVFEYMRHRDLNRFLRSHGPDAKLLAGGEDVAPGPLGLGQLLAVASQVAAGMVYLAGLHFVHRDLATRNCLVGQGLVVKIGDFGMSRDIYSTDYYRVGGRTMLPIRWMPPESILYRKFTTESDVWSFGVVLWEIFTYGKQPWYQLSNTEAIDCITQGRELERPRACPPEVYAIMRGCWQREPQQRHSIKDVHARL

TrkA^WT kinase, sequence (P04629 33-796): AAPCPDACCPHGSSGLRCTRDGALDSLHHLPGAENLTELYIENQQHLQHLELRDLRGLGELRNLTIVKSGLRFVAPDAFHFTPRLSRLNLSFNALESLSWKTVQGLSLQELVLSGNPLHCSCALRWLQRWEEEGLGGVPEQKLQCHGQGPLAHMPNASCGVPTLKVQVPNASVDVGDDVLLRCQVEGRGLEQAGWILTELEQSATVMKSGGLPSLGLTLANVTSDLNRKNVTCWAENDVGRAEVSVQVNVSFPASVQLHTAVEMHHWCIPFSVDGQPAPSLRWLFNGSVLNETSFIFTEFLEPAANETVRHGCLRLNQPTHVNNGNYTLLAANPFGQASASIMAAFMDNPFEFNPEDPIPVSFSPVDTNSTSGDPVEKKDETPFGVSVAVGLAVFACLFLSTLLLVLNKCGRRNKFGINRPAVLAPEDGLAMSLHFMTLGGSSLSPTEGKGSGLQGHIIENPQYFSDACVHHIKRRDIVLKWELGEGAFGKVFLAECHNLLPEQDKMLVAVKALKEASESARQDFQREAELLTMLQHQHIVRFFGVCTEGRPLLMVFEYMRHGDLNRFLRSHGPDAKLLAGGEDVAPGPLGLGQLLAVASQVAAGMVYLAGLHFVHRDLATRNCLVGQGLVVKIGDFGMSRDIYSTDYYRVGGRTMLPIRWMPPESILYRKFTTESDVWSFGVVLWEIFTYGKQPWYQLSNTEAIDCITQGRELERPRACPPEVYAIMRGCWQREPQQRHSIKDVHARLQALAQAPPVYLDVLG

SMILES	IC50 (TrkA^WT kinase)	IC50 [1]
Nc1nn2ccc3nc2c1C(=O)NCCOc1ncccc1C1CCCN31 (stereo not shown) [Example 11, (1^3E, 1^4E)-1^2-amino-4-oxa-7-aza-1(5,3)-pyrazolo[1,5-a]pyrimidine-3(3,2)-pyridine-2 (1,2)-pyrrolidylcyclooctanephane-8-one]	1.04 ± 0.34 nM	–
Nc1nn2ccc3nc2c1C(=O)NCCCOc1ncccc1[C@H]1CCCN31 [Example 6, (R,1^3E,1^4E)-1^2-amino-4-oxa-8-aza-1(5,3)-pyrazolo[1,5-a]pyrimidine-3(3,2)-pyridine-2 (1,2)-pyrrolidylcyclononanephane-9-one]	0.47 ± 0.26 nM	–
Nc1nn2ccc3nc2c1C(=O)NCCCn1cc(F)cc(c1=O)C1CCCN31 (stereo not shown) [Example 24, (1^3E,1^4E)-1^2-amino-3^5-fluoro-3^1,3^2-dihydro-7-aza-1(5,3)-pyrazolo[1,5-a]pyrimidine-3(3,1)-pyridine-2(1,2)-pyrrolidylcyclooctanephane-3^2,8-dione]	0.85 ± 0.07 nM	–
Nc1nn2ccc3nc2c1C(=O)NCCCn1cc(F)cc(c1=O)[C@H]1CCCN31 [Example 22, (1^3E,1^4E,2^2R)-1^2-Amino-3^5-fluoro-3^1,3^2-dihydro-7-aza-1(5,3)-pyrazolo[1,5-a]pyrimidine-3(3,1)-pyridine-2(1,2)-pyrrolidylcyclooctanephane-3^2,8-dione]	0.57 ± 0.03 nM	–
Nc1nn2ccc3nc2c1C(=O)NCCCCc1ncc(F)cc1[C@H]1C[C@H](F)CN31 [Example 31, (1^3E,1^4E,2^2R,2^4S)-1^2-amino-2^4,3^5-difluoro-8-aza-1(5,3)-pyrazolo[1,5-a]pyrimidine-3(3,2)-pyridine-2(1,2)-pyrrolidylcyclononanephane-9-one]	–	1.45 ± 0.11 nM
Nc1nn2ccc3nc2c1C(=O)NCCCOc1ncc(F)cc1C1CCCN31 (stereo not shown) [Example 2]	0.57 ± 0.1 nM	–
Nc1nn2ccc3nc2c1C(=O)NCCCCc1cccc(n1)C1CCCN31 (stereo not shown) [Example 3, (1^3E,1^4E)-1^2-amino-4-oxa-8-aza-1(5,3)-pyrazolo[1,5-a]pyrimidine-3(2,6)-pyridine-2 (1,2)-pyrrolidylcyclononanephane-9-one]	0.84 ± 0.12 nM	–
Nc1nn2ccc3nc2c1C(=O)NCCOc1ccc(F)cc1[C@@H]1CCCN31 [Example 20, (S,1^3E,1^4E)-1^2-amino-3^5-fluoro-4-oxa-7-aza-1(5,3)-pyrazolo [1,5-a]pyrimidine-2(1,2)-pyrrolidine-3(1,2)-benzocyclooctanephane-8-one]	3.8 ± 0.21 nM	–
CC1(C)CNC(=O)c2c(N)nn3ccc(nc23)N2C[C@@H](F)CC2c2cc(F)cnc2OC1 (stereo partly shown) [Example 18, (1^3E,1^4E,2^2R,2^4S)-1^2-amino-2^4,3^5-difluoro-6,6-dimethyl-4-oxa-8-aza-1(5,3)-pyrazolo [1,5-a]pyrimidine-3(3,2)-pyridine-2(1,2)-pyrrolidylcyclononanephane-9-one]	–	1.24 ± 0.15 nM
Nc1nn2ccc3nc2c1C(=O)NCCOc1ncccc1[C@H]1CCCN31 [Example 5, (R,1^3E,1^4E)-1^2-amino-4-oxa-7-aza-1(5,3)-pyrazolo[1,5-a]pyrimidine-3(3,2)-pyridine-2 (1,2)-pyrrolidylcyclooctanephane-8-one]	0.37 ± 0.04 nM	–
Nc1nn2ccc3nc2c1C(=O)NCC(F)(F)COc1ncc(F)cc1[C@H]1C[C@H](F)CN31 [Example 35, (1^3E,1^4E,2^2R,2^4S)-1^2-amino-2^4,3^5,6,6-tetrafluoro-4-oxa-8-aza-1(5,3)-pyrazol[1,5-a]pyrimidine-3(3,2)-pyridine-2(1,2)-pyrrolidylcyclononanephane-9-one]	–	1.36 ± 0.02 nM
C[C@H]1CNC(=O)c2c(N)nn3ccc(nc23)N2CCC[C@@H]2c2cc(F)ccc2O1 [Example 32, (1^3E,1^4E,2^2R,5S)-1^2-amino-3^5-fluoro-5-methyl-4-oxa-7-aza-1(5,3)-pyrazolo[1,5-a]pyrimidine-(1,2)-pyrrolidine-3(1,2)-benzocyclooctanephane-8-one]	–	1.28 ± 0.05 nM
Nc1nn2ccc3nc2c1C(=O)NCCCOc1ncc(F)cc1C1C[C@@H](F)CN31 (stereo partly shown) [Example 13, (1^3E,1^4E, 2^2R,2^4R)-1^2-amino-2^4,3^5-difluoro-4-oxa-8-aza-1(5,3)-pyrazolo[1,5-a]pyrimidine-3(3,2)-pyridine-2 (1,2)-pyrrolidylcyclononanephane-9-one]	0.64 ± 0.02 nM	–
